In patent US11040035B2, “3-oxo-2,6-diphenyl-2,3-dihydropyridazine-4-carboxamides” (BAYER PHARMA AKTIENGESELLSCHAFT, priority 2016, dated 2021) one finds IC50 data, which are given here for 19 compounds.

Usually IC50 stands for the concentration that inhibits the measured activity by half.

Some results are limits rather than exact numbers.

The target in data set [1] is T1, AHR (Homo sapiens, UniProt P35869).
T1 sequence (P35869 11-848): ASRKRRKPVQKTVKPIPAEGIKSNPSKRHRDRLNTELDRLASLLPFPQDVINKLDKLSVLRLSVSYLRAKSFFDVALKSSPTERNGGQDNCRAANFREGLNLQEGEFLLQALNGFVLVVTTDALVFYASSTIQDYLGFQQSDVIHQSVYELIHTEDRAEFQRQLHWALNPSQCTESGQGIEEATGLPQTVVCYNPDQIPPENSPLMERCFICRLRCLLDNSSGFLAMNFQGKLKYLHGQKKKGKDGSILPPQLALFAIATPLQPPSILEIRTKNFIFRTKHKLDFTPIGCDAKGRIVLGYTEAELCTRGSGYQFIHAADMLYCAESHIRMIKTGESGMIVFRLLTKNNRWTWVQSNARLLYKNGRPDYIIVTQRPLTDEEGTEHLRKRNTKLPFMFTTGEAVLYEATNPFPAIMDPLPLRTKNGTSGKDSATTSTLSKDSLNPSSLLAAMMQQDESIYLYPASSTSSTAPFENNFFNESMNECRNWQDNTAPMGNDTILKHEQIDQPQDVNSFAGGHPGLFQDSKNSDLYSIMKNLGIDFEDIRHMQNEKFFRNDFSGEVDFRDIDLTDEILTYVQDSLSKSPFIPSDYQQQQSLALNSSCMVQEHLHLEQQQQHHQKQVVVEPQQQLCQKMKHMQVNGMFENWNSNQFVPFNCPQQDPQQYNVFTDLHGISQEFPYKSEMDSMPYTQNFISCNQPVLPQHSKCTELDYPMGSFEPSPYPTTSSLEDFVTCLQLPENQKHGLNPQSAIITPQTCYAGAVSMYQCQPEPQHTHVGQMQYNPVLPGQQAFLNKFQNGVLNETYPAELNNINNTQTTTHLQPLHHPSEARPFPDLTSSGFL
Kind of data set: In vitro assay 2: agonism in human cell line (transactivation assay).

The target of data set [2] is T1, AHR. Kind of data set: In vitro assay 1: antagonism in human cell line (transactivation assay, kynurenic acid prestimulated).
Setting [3] is: read-out: Assay 2: AHR-luc Hum Agonism IC50, no kynurenic acid, 20 hours, firefly luciferase.
[4] abbreviates: Assay 2: AHR-luc Hum Agonism IC50 [M], no kynurenic acid, 20 hours, firefly luciferase.
[5] abbreviates: Assay 1: AHR-luc Hum Antagonism IC50 [M], 150 μM kynurenic acid, 20 hours, firefly luciferase.

As for “2-(3-Fluorophenyl)-N-{(2-hydroxy-1-[tetrahydrofuran-3-yl]ethyl}-6-(4-methoxyphenyl)-3-oxo-2,3-dihydropyridazine-4-carboxamide [Example 158]”, the IC50 is > 2e-05 M at AHR [1] (setting [3]) and 2.75e-07 M on AHR [2] (read-out: Assay 1: AHR-luc Hum Antagonism IC50, 150 μM kynurenic acid, 20 hours, firefly luciferase).

As to `CC(NC(=O)c1cc(-c2ccc(Cl)cc2)nn(-c2cccc(F)c2)c1=O)C(O)C(F)(F)F` (mixture of isomers) [Example 217, Isomeric mixture no. 1 of 6-(4-chlorophenyl)-2-(3-fluorophenyl)-3-oxo-N-(4,4,4-trifluoro-3-hydroxybutan-2-yl)-2,3-dihydropyridazine-4-carboxamide], the IC50 at AHR [1] (setting [4]) was > 2e-05 M.

On to `O=C(NCC(O)C1CC1)c1cc(-c2ccc(Cl)cc2)nn(-c2cccc(F)c2)c1=O` (racemic) [Example 190, 6-(4-Chlorophenyl)-N-[(2RS)-2-cyclopropyl-2-hydroxyethyl]-2-(3-fluorophenyl)-3-oxo-2,3-dihydropyridazine-4-carboxamide], for which the IC50 at AHR [1] (setting [4]) is > 2e-05 M; at AHR [2] (setting [5]), 2.77e-07 M.

Consider `O=C(NC(CO)C1CC1)c1cc(-c2ccc(Cl)cc2)nn(-c2cccc(F)c2)c1=O` (racemic) [Example 193, 6-(4-Chlorophenyl)-N-[(1RS)-1-cyclopropyl-2-hydroxyethyl]-2-(3-fluorophenyl)-3-oxo-2,3-dihydropyridazine-4-carboxamide], for which the half-maximal inhibitory concentration (IC50) at AHR [1] (setting [4]) was > 2e-05 M; against AHR [2] (setting [5]), 2.52e-08 M.

As for `CC(CO)CNC(=O)c1cc(-c2ccc(Cl)cc2)nn(-c2cccc(F)c2)c1=O` (racemic) [Example 200, 6-(4-Chlorophenyl)-2-(3-fluorophenyl)-N-[(2RS)-3-hydroxy-2-methylpropyl]-3-oxo-2,3-dihydropyridazine-4-carboxamide], the figures for the IC50 against AHR [1] (setting [4]) and on AHR [2] (setting [5]) were > 2e-05 M and 7.5e-08 M, respectively.

For the compound `CC(O)CCNC(=O)c1cc(-c2ccc(Cl)cc2)nn(-c2cccc(F)c2)c1=O` (racemic) [Example 203, 6-(4-Chlorophenyl)-2-(3-fluorophenyl)-N-[(3RS)-3-hydroxybutyl]-3-oxo-2,3-dihydropyridazine-4-carboxamide], the values for the IC50 on AHR [1] (setting [4]) and against AHR [2] (setting [5]) were > 2e-05 M and 2.13e-07 M, respectively.

In the case of `CC(CCO)NC(=O)c1cc(-c2ccc(Cl)cc2)nn(-c2cccc(F)c2)c1=O` (racemic) [Example 206, 6-(4-Chlorophenyl)-2-(3-fluorophenyl)-N-[(2RS)-4-hydroxybutan-2-yl]-3-oxo-2,3-dihydropyridazine-4-carboxamide], the results for the IC50 against AHR [1] (setting [4]) and against AHR [2] (setting [5]) were > 2e-05 M and 6.25e-08 M, respectively.

As to `CC(NC(=O)c1cc(-c2ccc(Cl)cc2)nn(-c2cccc(F)c2)c1=O)C(O)C(F)(F)F` (racemic) [Example 216, 6-(4-Chlorophenyl)-2-(3-fluorophenyl)-3-oxo-N-[(2RS,3RS)-4,4,4-trifluoro-3-hydroxybutan-2-yl]-2,3-dihydropyridazine-4-carboxamide and 6-(4-Chlorophenyl)-2-(3-fluorophenyl)-3-oxo-N-[(2RS,3SR)-4,4,4-trifluoro-3-hydroxybutan-2-yl]-2,3-dihydropyridazine-4-carboxamide], the IC50 against AHR [1] (setting [4]) was > 2e-05 M; on AHR [2] (setting [5]), 1.16e-07 M.

For `O=C(NCC(O)C(F)F)c1cc(-c2ccc(Cl)cc2)nn(-c2cccc(F)c2)c1=O` (racemic) [Example 221, 6-(4-Chlorophenyl)-N-[(2RS)-3,3-difluoro-2-hydroxypropyl]-2-(3-fluorophenyl)-3-oxo-2,3-dihydropyridazine-4-carboxamide], the IC50 at AHR [1] (setting [4]) was > 2e-05 M; against AHR [2] (setting [5]) it was 7.64e-08 M.

Regarding `O=C(NC(CO)CCO)c1cc(-c2ccc(Cl)cc2)nn(-c2cccc(F)c2)c1=O` (racemic) [Example 224, 6-(4-Chlorophenyl)-N-[(2RS)-1,4-dihydroxybutan-2-yl]-2-(3-fluorophenyl)-3-oxo-2,3-dihydropyridazine-4-carboxamide], the IC50 on AHR [1] (setting [4]) is > 2e-05 M; on AHR [2] (setting [5]), 2.79e-07 M.

Consider `COCCC(CO)NC(=O)c1cc(-c2ccc(Cl)cc2)nn(-c2cccc(F)c2)c1=O` (racemic) [Example 227, 6-(4-Chlorophenyl)-2-(3-fluorophenyl)-N-[(2RS)-1-hydroxy-4-methoxybutan-2-yl]-3-oxo-2,3-dihydropyridazine-4-carboxamide], for which the 50% inhibitory concentration (IC50) was > 2e-05 M against AHR [1] (setting [4]) and 3.57e-07 M against AHR [2] (setting [5]).

On to `CC(O)C(NC(=O)c1cc(-c2ccc(C(F)(F)F)cc2)nn(-c2cccc(F)c2)c1=O)C(F)(F)F` (racemic) [Example 260, 2-(3-Fluorophenyl)-3-oxo-N-[(2RS,3RS)-1,1,1-trifluoro-3-hydroxybutan-2-yl]-6-[4-(trifluoromethyl)phenyl]-2,3-dihydropyridazine-4-carboxamide or 2-(3-fluorophenyl)-3-oxo-N-[(2SR,3RS)-1,1,1-trifluoro-3-hydroxybutan-2-yl]-6-[4-(trifluoromethyl)phenyl]-2,3-dihydropyridazine-4-carboxamide], for which, on AHR [1] (setting [4]), the IC50 was > 2e-05 M.

On AHR [1] (setting [4]), `O=C(NC(CO)C(F)(F)F)c1cc(-c2ccc(C(F)(F)F)cc2)nn(-c2cccc(F)c2)c1=O` (racemic) [Example 266, 2-(3-Fluorophenyl)-3-oxo-N-[(2RS)-1,1,1-trifluoro-3-hydroxypropan-2-yl]-6-[4-(trifluoromethyl)phenyl]-2,3-dihydropyridazine-4-carboxamide] yielded an IC50 of 7.84e-07 M.

Turning to `CC(C)(O)C(NC(=O)c1cc(-c2ccc(C(F)(F)F)cc2)nn(-c2cccc(F)c2)c1=O)C(F)(F)F` (single isomer, unassigned; (+)) [Example 395, (+)-2-(3-fluorophenyl)-3-oxo-N-(1,1,1-trifluoro-3-hydroxy-3-methylbutan-2-yl)-6-[4-(trifluoromethyl)phenyl]-2,3-dihydropyridazine-4-carboxamide], on AHR [1] (setting [3]), the IC50 was > 2e-05 M.

As for `Cc1ccc(-c2cc(C(=O)NC(C)CO)c(=O)n(-c3cccc(F)c3)n2)cc1C` (centres unmarked) [Example 88, 6-(3,4-dimethylphenyl)-2-(3-fluorophenyl)-N-(1-hydroxypropan-2-yl)-3-oxo-2,3-dihydropyridazine-4-carboxamide], the IC50 on AHR [2] (setting [5]) worked out at 1.46e-07 M.

For `Cc1ccc(-c2cc(C(=O)N[C@H](C)CO)c(=O)n(-c3cccc(F)c3)n2)cc1C` [Example 90, 6-(3,4-dimethylphenyl)-2-(3-fluorophenyl)-N-[(2R)-1-hydroxypropan-2-yl]-3-oxo-2,3-dihydropyridazine-4-carboxamide], the IC50 against AHR [2] (setting [5]) worked out at 6.75e-07 M.

With `O=C(N[C@@H]1CCC[C@@H]1O)c1cc(-c2ccc(Cl)cc2)nn(-c2cccc(F)c2)c1=O` [Example 133, 6-(4-Chlorophenyl)-2-(3-fluorophenyl)-N-[(1R,2S)-2-hydroxycyclopentyl]-3-oxo-2,3-dihydropyridazine-4-carboxamide], the IC50 at AHR [1] (setting [4]) was > 2e-05 M.

For `CC(C)[C@@H](CO)NC(=O)c1cc(-c2ccc(C(F)(F)F)cc2)nn(-c2cccc(F)c2)c1=O` [Example 239, 2-(3-Fluorophenyl)-N-[(2S)-1-hydroxy-3-methylbutan-2-yl]-3-oxo-6-[4-(trifluoromethyl)phenyl]-2,3-dihydropyridazine-4-carboxamide], the IC50 against AHR [1] (setting [4]) is > 2e-05 M.

In the case of `CC(C)[C@H](CO)NC(=O)c1cc(-c2ccc(C(F)(F)F)cc2)nn(-c2cccc(F)c2)c1=O` [Example 240, 2-(3-Fluorophenyl)-N-[(2R)-1-hydroxy-3-methylbutan-2-yl]-3-oxo-6-[4-(trifluoromethyl)phenyl]-2,3-dihydropyridazine-4-carboxamide], at AHR [1] (setting [4]), the IC50 stood at 6.56e-08 M.
